Source: patent publication US20230330120A1, “COMPOSITION FOR PREVENTING HAIR LOSS OR PROMOTING HAIR REGROWTH” (LG HOUSEHOLD & HEALTH CARE LTD., priority 2020, published 2023)
Where two headings read alike, the source gives them in different places.

B1: Wnt3a: Wnt3a protein (positive control group) which binds directly to the receptor of Wnt/β-catenin (protein, UniProt P56704 19-352, looked up)
Protein Wnt-3a: SYPIWWSLAVGPQYSSLGSQPILCASIPGLVPKQLRFCRNYVEIMPSVAEGIKIGIQECQHQFRGRRWNCTTVHDSLAIFGPVLDKATRESAFVHAIASAGVAFAVTRSCAEGTAAICGCSSRHQGSPGKGWKWGGCSEDIEFGGMVSREFADARENRPDARSAMNRHNNEAGRQAIASHMHLKCKCHGLSGSCEVKTCWWSQPDFRAIGDFLKDKYDSASEMVVEKHRESRGWVETLRPRYTYFKVPTERDLVYYEASPNFCEPNPETGSFGTRDRTCNVSSHGIDGCDLLCCGRGHNARAERRREKCRCVFHWCCYVSCQECTRVYDVHTCK

How the values were obtained:
[1] = test system: human-derived dermal papilla cells (DPCs); assay: Proliferation of dermal papilla cells (CCK-8); format: cell-based; details: for activity at 2 µg/mL / activity at 20 µg/mL: read-out: Proliferation of dermal papilla cells (%)
Procedure: The effect of promoting the proliferation of dermal papilla cells was investigated using human-derived dermal papilla cells (DPCs). The human-derived dermal papilla cells were purchased from PromoCell. The DPCs were cultured using a medium (follicle dermal papilla cell growth medium; PromoCell, Heidelberg, Germany) and a medium additive (supplement mix; PromoCell, Heidelberg, Germany) recommended by PromoCell under the condition of 37° C. and 5% CO2. The cultured DPCs were seeded onto a 96-well plate at 3,000 cells/well and then cultured for 24 hours under 0.1% serum condition. Then, the cultured cells were incubated for 1 day after treating with DMSO diluted with serum-free DMEM to 1:1000 (vehicle), 0.1 μg/mL minoxidil as a positive control group, or at 2 or 20 μg/mL valechlorine, tussilagone, periplocin, lysionotin, nitidine, lanosterol, engeletin, specnuezhenide, praeruptorin B, rotundic acid, sesamoside or polyphyllin VII. After the incubation, cell proliferation was evaluated by the CCK method. CCK-8 was treated to a medium at 1:10 and then incubated for 1 hour. 1 hour later, the absorbance of each well was measured at 450 nm. All experiments were repeated 3 times and the average of absorbance was calculated. The control group was set at 100%, and the results were represented as a percentage compared to the control group.

β-catenin [2] = assay: Expression of β-catenin protein in dermal papilla cells (SDS-PAGE / anti-β-catenin antibody); format: cell-based, human; details: for activity at 2 µg/mL / activity at 20 µg/mL: Homo sapiens, 24 h, read-out: Expression level of β-catenin protein (%)
Procedure: Human dermal papilla cells were seeded onto a 6-well plate at 500,000 cells/well and then incubated for 1 day after treating with 2 or 20 μg/mL valechlorine, tussilagone, periplocin, lysionotin, nitidine, lanosterol, engeletin, specnuezhenide, praeruptorin B, rotundic acid, sesamoside or polyphyllin VII. After the incubation, the cells were lysed using an M-PER lysis buffer and a cell lysate of the same volume was loaded on SDS-PAGE gel. After transferring the cell lysate loaded on the SDS-PAGE gel to a nitrocellulose membrane, proteins were detected by attaching anti-β-catenin antibodies to the nitrocellulose membrane. GAPDH was used as a control for calibrating the quantity of proteins. The amount of β-catenin increased by the valechlorine, tussilagone, periplocin, lysionotin, nitidine, lanosterol, engeletin, specnuezhenide, praeruptorin B, rotundic acid, sesamoside or polyphyllin VII was investigated. The control group was set at 100%, and the results were represented as a percentage compared to the control group as shown in Table 5.

β-catenin [3] = assay: as above; format: cell-based, human; details: 0.5 μg/mL (positive control); control group = 100%
[4] = Homo sapiens, 24 h, 2 μg/mL, 1 day, control group = 100%
[5] = Homo sapiens, 24 h, 20 μg/mL, 1 day, control group = 100%
[6] = 2 μg/mL, 1 day, control group = 100%, GAPDH calibration
[7] = 20 μg/mL, 1 day, control group = 100%, GAPDH calibration

Row | Molecule | activity at 2 µg/mL [1, 4] [%] | activity at 20 µg/mL [1, 5] [%] | activity at 2 µg/mL (β-catenin [2]; [6]) [%] | activity at 20 µg/mL (β-catenin [2]; [7]) [%] | further results
1 | CC(C)=CCC[C@@H](C)[C@H]1CC[C@@]2(C)C3=C(CC[C@]12C)[C@@]1(C)CC[C@H](O)C(C)(C)[C@@H]1CC3 [Lanosterol] | 143 | 189 | 241 | 246 | –
2 | COc1ccc(-c2cc(=O)c3c(O)c(OC)c(O)c(OC)c3o2)cc1 [Lysionotin] | 164 | 179 | 210 | 232 | –
3 | Nc1cc(N2CCCCC2)nc(N)[n+]1[O-] [Minoxidil, reference compound] | – | – | – | – | activity at 0.1 µg/mL ([1]; Homo sapiens, 24 h, 100 ng/ml (positive control), 1 day, control group = 100%): 130%
4 | COc1cc2c[n+](C)c3c4cc5c(cc4ccc3c2cc1OC)OCO5 [Nitidine] | 155 | 181 | 220 | 262 | –
5 | C/C=C(\C)C(=O)OC1c2c(ccc3ccc(=O)oc23)OC(C)(C)C1OC(=O)/C(C)=C/C (stereo not drawn) [Praeruptorin B] | – | – | – | – | activity at 2 µg/mL ([1]; Homo sapiens, 24 h): 144%; activity at 20 µg/mL ([1]; Homo sapiens, 24 h): 173%; activity at 2 µg/mL (β-catenin [2]): 211%; activity at 20 µg/mL (β-catenin [2]): 250%
6 | C[C@@H]1CC[C@]2(C(=O)O)CC[C@]3(C)C(=CC[C@@H]4[C@@]5(C)CC[C@H](O)[C@@](C)(CO)[C@@H]5CC[C@]43C)[C@@H]2[C@]1(C)O [Rotundic acid] | 156 | 183 | 211 | 258 | –
7 | COC(=O)C1=CO[C@@H](O[C@@H]2O[C@H](CO)[C@@H](O)[C@H](O)[C@H]2O)[C@@H]2[C@@]3(C)O[C@H]3[C@@H](O)[C@]12O [Sesamoside] | 168 | 194 | 245 | 295 | –
8 | C/C=C1/[C@H](O[C@@H]2O[C@H](CO)[C@@H](O)[C@H](O)[C@H]2O)OC=C(C(=O)OC)[C@H]1CC(=O)OC[C@H]1O[C@@H](OCCc2ccc(O)cc2)[C@H](O)[C@@H](O)[C@@H]1O [Specnuezhenide] | 150 | 170 | 216 | 289 | –
9 | C=C1[C@H](OC(=O)/C=C(\C)CC)C[C@@H](C(C)C)[C@@H]2[C@@H]([C@H](C)OC(C)=O)C(=O)C[C@@H]12 [Tussilagone] | 157 | 178 | 208 | 253 | –
10 | CC(=O)OCC1=CO[C@@H](OC(=O)CC(C)C)[C@H]2C1=C[C@H](OC(=O)CC(C)C)[C@]2(O)CCl [Valechlorine] | – | – | – | – | activity at 2 µg/mL ([1]; Homo sapiens, 24 h): 146%; activity at 20 µg/mL ([1]; Homo sapiens, 24 h): 159%; activity at 2 µg/mL (β-catenin [2]): 217%; activity at 20 µg/mL (β-catenin [2]): 234%
11 | Engeletin | – | – | – | – | Proliferation of dermal papilla cells (%) ([1]; 2 μg/mL, 1 day, control group = 100%): 143.2%; Proliferation of dermal papilla cells (%) ([1]; 20 μg/mL, 1 day, control group = 100%): 188.1%; Expression level of β-catenin protein (%) (β-catenin [2]; [6]): 231.1%; Expression level of β-catenin protein (%) (β-catenin [2]; [7]): 276.3%
12 | B1 | – | – | – | – | Expression level of β-catenin protein (%) (β-catenin [3]): 208.8%
